From patent US20060134197A1, “Method of reducing unpleasant taste and/or unpleasant odor” (priority 2002, published 2006) come the findings set out here.

Test [1] can be described thus: Inhibiting the production of amines from heated minced mackerel (headspace GC). The note with it: minced mackerel with 5% saccharide solution; for Relative rate of inhibiting the production of dimethylamine / Relative rate of inhibiting the production of trimethylamine: headspace gas; for Relative rate of inhibiting the production of total amine: trimethylamine plus dimethylamine. The method, then:
Five grams of minced mackerel, prepared by mincing commercialized mackerel without head part, internal organs and bone with a mincer to homogeneity, was placed in a 20-ml vial, and admixed with 5 ml of an aqueous solution containing on a dry solid basis 5% of “TREHA®”, a food grade hydrous α,α-trehalose commercialized by Hayashibara Biochemical laboratories, Inc., Okayama, Japan (purity 99.0% or more), sucrose (a commercialized granulated sugar), or a syrupy saccharide mixture containing saccharide derivatives of α,α-trehalose prepared in Example 1. The resulting vials were sealed with a butyl gum cap to prepare test samples. As a control, a vial containing 5 g of the minced mackerel and 5 ml of deionized water was sealed with a butyl gum cap for a control sample. These samples were heated in boiled water for 15 minutes, cooled in running water, and heated at 80° C. for five minutes. The resulting headspace gas was taken from each of the vials and allowed to measure the contents of amines, hydrogen sulfide and aldehydes.
Measurement of the content of amines was carried out by subjecting 2 ml of the headspace gas to analysis by GC-14B gas chromatography, a hydrogen flame ionizing detector commercialized by Shimazu Co., Ltd., Kyoto, Japan, with flowing helium gas as a carrier gas at a flow rate of 1 ml/minute, and using DB-5 capillary column, 30 m in length and 0.25 mm in internal diameter (df=0.25 μm, sprit rate 1/30), commercialized by J & W Company, with an increasing column temperature from 40° C. to 250° C. at a rate of 5° C./minute. The amount of total amine was calculated by totalizing the amount of trimethylamine and dimethylamine.
The values of the production of amines, hydrogen sulfide and aldehydes of each test sample were compared with the value of control defined as 100 to calculate the relative values thereof. And then, the relative rates of inhibiting the production of amines, hydrogen sulfide and aldehydes were respectively calculated by 100 minus each of the relative values.

A short description of test [2]: Inhibiting the production of hydrogen sulfide from chicken egg due to heat-decomposition. To be noted: 10 g egg solution and 5 g saccharide in 50 ml, pH 7.0; 80° C. for 60 minutes; 100 minus relative value, control defined as 100. The source says:
Ten grams of an egg solution prepared by mixing a commercialized chicken egg with an equal weight of deionized water, and on a dry solid basis 5 g of a precisely measured saccharide sample; i.e. hydrous crystalline α,α-trehalose (food grade, purity 97.0% or more, commercialized by Hayashibara Biochemical Laboratories, Inc., Okayama, Japan), sucrose (a commercialized granulated sugar), a syrup containing saccharide derivatives of α,α-trehalose prepared in the following Example 1, or a syrup containing saccharide derivatives of α,α-trehalose prepared in the following Example 6 (hereinafter, it is called as “hydrogenated syrup containing saccharide derivatives containing α,α-trehalose”); were placed in a 50-ml volume measuring flask, and admixed with 5 ml of 500 mM phosphate buffer (pH 7.0) and deionized water to give a final volume of 50 ml. As a control, 10 g of an egg solution was admixed with deionized water to give a final volume of 50 ml. Five milliliters of each of the samples was placed into a 20-ml volume vial, sealed with a butyl gum cap, and kept at 80° C. for 60 minutes in an incubator. Hydrogen sulfide contained in 10 ml of the resulting headspace gas was measured by “[…] […] And then, the relative rate of inhibiting the production of hydrogen sulfide was calculated by 100 minus the relative value.

A short description of test [3]: Panel test of lowering iron taste and/or smell of aqueous bivalent iron ion solution. To be noted: for Effect on lowering iron taste and/or smell: 5 mg bivalent iron per 100 ml, 12 panels; for Concentration effective on lowering unpleasant taste and/or smell of aqueous iron ion solution: to the total weight of the aqueous solution, dry solid basis. The arrangement: key to Effect on lowering iron taste and/or smell: “Not effective (symbol “−”)” meaning of that the test aqueous solution showed no difference in iron taste and/or smell from that the control aqueous solution; “Slightly effective (symbol “+”)”, the test aqueous solution showes weaker iron taste and/or smell than the control aqueous solution but the deference was not significant; “Effective (symbol “++”)”, the test aqueous solution showed a slight iron taste and/or smell but it was significantly weaker than that of the control aqueous solution; “Strongly effective (symbol “+++”)”, the test aqueous solution showed almost no iron taste and/or smell. As for the experimental part: To confirm the effect of various saccharides on inhibiting taste and/or smell of bivalent iron ion, the following experiment was carried out. An aqueous solution containing bivalent iron ion was prepared by dissolving 0.05556 part by weight of ammonium ferric citrate (iron content of about 18%), and 0.1 part by weight of ascorbic acid in 100 parts by weight of deionized water. Test aqueous solutions containing 5 mg of bivalent iron per 100 ml of water and 0.5, 1.0, 1.5, 2.0 or 5.0% of saccharide selected from sucrose, maltose (hydrous crystalline maltose commercialized by Hayashibara Biochemical Laboratories, Inc., Okayama, Japan, purify 99.0% or more), α,α-trehalose (hydrous crystalline α,α-trehalose commercialized by Hayashibara Biochemical Laboratories, Inc., Okayama, Japan, purity 99.0% or more), α-glucosyl α,α-trehalose (hydrous crystalline α-glucosyl α,α-trehalose prepared in Experiment B-1 of Japanese Patent Publication (Kokai) No. 291,986/1995, purity 99.0% or more), and […] (powdery α-maltosyl α,α-trehalose prepared in Example 5 described following, purity 98.1%) were prepared by admixing the above aqueous solution containing bivalent iron with an equal volume of a pre-prepared aqueous solution containing any one of the above saccharides at a concentration of 1.0, 2.0, 3.0, 4.0 or 10.0%, on a dry solid basis. As a control, an aqueous solution was prepared by admixing the aqueous solution containing bivalent iron ion with an equal volume of warter instead of the aqueous saccharide solution.
The effect on lowering iron taste and/or smell, namely unpleasant taste and/or smell of iron ion existing in a test aqueous solution at a concentration of 5 mg per 100 ml was judged by a panel test using 12 panels. […] In the judgement for each test aqueous solution, ten or more of 12 panels answered the same judgement.

Molecules are shown by their SMILES. Bounds are passed on as bounds.

For `OC[C@H]1O[C@@](CO)(O[C@H]2O[C@H](CO)[C@@H](O)[C@H](O)[C@H]2O)[C@@H](O)[C@@H]1O` [Sucrose, sucrose], the “Relative rate of inhibiting the production of dimethylamine” value in test [1] is given as −34. For the same compound, in test [1], the “Relative rate of inhibiting the production of trimethylamine” value came out at 12. The “Relative rate of inhibiting the production of total amine” value in test [1] is given as −8. Moreover, in test [2], the “Relative rate of inhibiting the production of hydrogen sulfide” value turned out to be 14. In addition, the “Effect on lowering iron taste and/or smell” value in test [3] (saccharide 0.5%), in test [3] (saccharide 1.0%), in test [3] (saccharide 1.5%), in test [3] (saccharide 2.0%) and in test [3] (saccharide 5.0%) was “−” throughout. Further, the “Concentration effective on lowering unpleasant taste and/or smell of aqueous iron ion solution” value in test [3] is on record as “not effective”.

As for `OC[C@H]1O[C@H](O[C@H]2O[C@H](CO)[C@@H](O)[C@H](O)[C@H]2O)[C@H](O)[C@@H](O)[C@@H]1O` [α,α-Trehalose, α,α-trehalose], in test [1], the “Relative rate of inhibiting the production of dimethylamine” value was 44. Besides, in test [1], the “Relative rate of inhibiting the production of trimethylamine” value is given as 58. Further, in test [1], the “Relative rate of inhibiting the production of total amine” value was found to be 52. In addition, the “Relative rate of inhibiting the production of hydrogen sulfide” value in test [2] is reported as 30. Moreover, the “Effect on lowering iron taste and/or smell” value is “−” in test [3] (saccharide 0.5%); “−” in test [3] (saccharide 1.0%); “+” in test [3] (saccharide 1.5%); “+” in test [3] (saccharide 2.0%); “++” in test [3] (saccharide 5.0%). Moreover, the “Concentration effective on lowering unpleasant taste and/or smell of aqueous iron ion solution” value in test [3] is no less than 1.5%.
